Test results: article PMC6694155, “PTPσ inhibitors promote hematopoietic stem cell regeneration” (Nature Communications, 2019)
Where “and” joins values, the source holds several entries; their conditions need not be identical. Equal values may be shown once.

Tests used:
BM KSL cells [1] = test: CFC assay from 300 cGy-irradiated BM KSL cells, 3 day culture; type: cell-based, mouse; design: CFU-GM / BFU-E: unit not given here
Protocol: CFC assays (colony-forming unit-granulocyte monocyte), burst-forming unit-erythroid, and CFU-GEMM were performed using MethoCult GF M3434 (Stemcell Technologies)[6]. […] Recombinant mouse SCF, Flt3 ligand, and TPO were purchased from R&D Systems. For competitive repopulation assays, BM cells were isolated from donor 10–12-week-old female CD45.2^+ mice. Recipient 10-week-old female CD45.1^+ B6.SJL mice were irradiated with 950 cGy TBI using a Cs137 irradiator and donor BM cells were administered via tail vein injection along with a competing dose of 1 × 10^5 non-irradiated host BM cells. Multilineage donor hematopoietic cell engraftment was measured in the PB by flow cytometry.

BCL-XL in BM KSL cells = test: BCL-XL protein intracellular flow cytometry of BM KSL cells; type: cell-based, mouse; details: BM KSL cells, 24 hours following 300 cGy, 43 ng/ml BVD523
Protocol: (§1) Intracellular flow cytometric analysis was performed on irradiated (300 cGy) or non-irradiated, sorted KSL cells after treatment with 1 μg/mL DJ001 or control (equal volumes of DMSO) for 24 h. At 24 h after irradiation, cells were fixed with 4% PFA for 10 min, followed by permeabilization using 0.25% saponin in PBS. Cells were washed again and stained with antibody at the recommended concentrations for 30 min at RT. Intracellular antibodies and phospho-flow antibodies used were as follows: FITC-conjugated anti-BCL-XL (Abcam, #26148, 1:100), active RAC1-GTP antibody (NewEast Biosciences, #26903, 1:100) and anti-PAK1 (phospho S144) + PAK2 (phospho S141) + PAK3 (phospho S154) antibody (Abcam, #40795, 1:100), and FITC-conjugated goat anti-rabbit IgG H&L (Abcam, #97050, 1:200).

C57BL/6 mice = test: Survival study after 750 cGy TBI; type: in vivo, mouse; details: 750 cGy, systemic EHT1864
Protocol: For survival studies, 10-week-old female C57BL/6 mice were irradiated with 750 cGy TBI, which is lethal for ~50% of C57BL/6 mice by day + 30 (LD50/30), using a Shepherd Cesium-137 irradiator. Twenty four hours post irradiation, mice were administered daily subcutaneous injections of 5 mg/kg DJ001 or DJ009, or vehicle in a volume of 100 μL for 10 days. DJ001 or DJ009 injections were prepared in PBS, 0.5% Tween 80, and 10% DMSO. Corresponding vehicle injections contained PBS, 10% DMSO, and 0.5% Tween 80. PB complete blood counts were measured using a Hemavet 950 instrument (Drew Scientific) at day + 10 post irradiation. For hematopoietic analysis, BM cells were collected at day + 10 post irradiation. To study whether DJ001 increased survival rates through activation of RAC signaling, the RAC inhibitor, EHT1864 (Selleckchem), was dissolved in PBS and administered intraperitoneally, 40 mg/kg every other day, to 750 cGy-irradiated mice until day + 10.

p-PAK1 in BM KSL cells = test: p-PAK1 phospho-flow cytometry of BM KSL cells; type: cell-based, mouse; details: BM KSL cells, DJ001 + 6 μg/mL EHT1864
Protocol: as §1

BM KSL cells [2] = test: Annexin V/7AAD apoptosis assay of BM KSL cells from mice 24 h post 500 cGy TBI; type: in vivo, mouse
Protocol: (§2) Eight- to ten-week-old female C57BL/6 mice were irradiated with 500 cGy TBI followed by subcutaneous injections of 5 mg/kg DJ001 or vehicle, or 5 mg/kg DJ001 plus 40 mg/kg EHT1864. Twenty four hours after irradiation, mice were killed to collect BM cells for Annexin V apoptosis analysis. BM cells were stained with APC-Cy7-conjugated anti-mouse Sca1 (BD Biosciences, #560654, 1:100), PE-conjugated anti-ckit (BD Biosciences, #553355, 1:100), and V450 lineage cocktail (BD Biosciences, #561301, 1:10) antibodies for 30 min at 4 °C. Cells were then resuspended in 1× Annexin V binding buffer and then stained with FITC-conjugated anti-Annexin V antibody (BD Biosciences, #556547,1:50) and 7AAD antibody (BD Biosciences, #559925, 1:40)[68]. For in vitro human BM cell apoptosis assays, isolated human BM CD34^+ cells were plated into 96-well plates and then irradiated with 300 cGy. Immediately after irradiation, cells were treated with 5 μg/mL DJ001 or vehicle for 24 h and then collected for Annexin V cell apoptosis analysis. For cell cycle analysis, BM KSL cells were irradiated at 300 cGy and then treated with 1 μg/mL DJ001 or vehicle for 36 h. Subsequently, cells were resuspended in 200 μL of PBS, fixed with 1 mL of ice-cold fixation solution (0.25% Saponin, 2.5% PFA, 2% fetal calf serum (FCS) in PBS), and incubated for 30 min on ice. Cells were washed in Saponin buffer (0.25% Saponin, 2% FCS in PBS) and resuspended in 200 μL of Saponin buffer containing 20 μL of FITC-conjugated anti-Ki67 antibody (BD Biosciences, #556026, 1:10) and 1 μL of RNase (Qiagen, #19101, 100 mg/mL). After 30 min of incubation, cells were washed in Saponin buffer and resuspended for flow analysis in 200 μL of Saponin buffer containing 5 μL 7AAD (BD Biosciences, #559925, 1:40).

BM KSL cells [3] = test: Cell cycle analysis (Ki67/7AAD) of BM KSL cells; type: cell-based, mouse; details: BM KSL cells following irradiation
Protocol: as §2

catalytic domain of PTPσ = system: catalytic domain of PTPσ; design: method as in PMID 23185579; details: cited from earlier work

Structure (SMILES): CC(C)Nc1cc(-c2c[nH]c(C(=O)N[C@H](CO)c3cccc(Cl)c3)c2)c(Cl)cn1 [BVD523, reference compound]
- effect on hematopoietic progenitor cell recovery following irradiation (BM KSL cells [1]; DJ001 + 43 ng/mL BVD523, 300 cGy, day +3): abrogated hematopoietic progenitor cell recovery
- effect on DJ001-mediated increase in BCL-XL protein levels (BCL-XL in BM KSL cells): blocked DJ001-mediated increase in BCL-XL protein levels

Structure (SMILES): O=c1cc(CN2CCOCC2)occ1OCCCCCSc1ccnc2cc(C(F)(F)F)ccc12 [EHT1864, reference compound]
- effect on DJ001-mediated CFC generation (BM KSL cells [1]; BM KSL cells irradiated with 300 cGy in vitro, 6 µg/ml EHT1864): inhibited DJ001-mediated CFC generation
- BFU-E (BM KSL cells [1]; Supplementary Figure 7d): 1 and 2
- CFU-GM (BM KSL cells [1]; Supplementary Figure 7d): 9 and 6 and 11 and 10 and 12
- effect on DJ001-mediated increase in survival of irradiated mice (C57BL/6 mice): completely blocked DJ001-mediated increase in survival
- effect on DJ001-mediated phosphorylation of PAK1 (p-PAK1 in BM KSL cells): abrogated DJ001-mediated phosphorylation of PAK1
- Figure 3e: Annexin V/7AAD apoptosis of BM KSL cells (BM KSL cells [2]; 24 h post 500 cGy TBI, individual mice): 24.85 and 19.31 and 21.21 and 22.28
- effect on DJ001-mediated anti-apoptotic effects on BM KSL cells (BM KSL cells [2]; irradiated mice): abrogated DJ001-mediated anti-apoptotic effects
- effect on DJ001-mediated induction of cell cycle progression (BM KSL cells [3]): suppressed DJ001-mediated induction of cell cycle progression

Structure (SMILES): COc1ccc2c(c1)/C(=C/c1cnc[nH]1)C(=O)N2 [SU9516, reference compound]
- effect on DJ001-mediated induction of cell cycle progression (BM KSL cells [3]): suppressed DJ001-mediated induction of cell cycle progression

Structure (SMILES): O=C(/C=C\Nc1cc([N+](=O)[O-])ccc1O)c1ccc(Cl)c(Cl)c1 [compound 5075, reference compound]
- reported properties against the catalytic domain of PTPσ (catalytic domain of PTPσ): binding and inhibitory properties
